Results from patent publication US6187907A, “Triple helix coil template having a biologically active ligand” (priority 1998, dated 2001).
Bridge positions count the residues as written; N and C are the ends. Square brackets hold non-standard residues; d marks the D form. Peptide text beside a SMILES is read from it. I, II: the chains in the order shown. * marks the point of attachment. Succinyl(2R-iBu,4-NHOH) = CC(C)C[C@H](CC(=O)NO)C(=O)*; Hyp = O=C(O)[C@@H]1C[C@@H](O)CN1; Ahx = NCCCCCC(=O)O

Biological target: Human gelatinase
Assay: Inhibition of trypsin-activated human gelatinase, fluorogenic Mca peptide substrate
Assay type: biochemical
Conditions: substrate 10 μM, 37° C., 60 minutes, 5 minutes preincubation; read-out: IC50 against activated gelatinase
Experimental: Human gelatinase was activated with trypsin as follows. A reaction mixture was prepared in Tris buffer (pH 7.5) containing 20 mM Tris-HCl, 0.15 N NaCl, 4 μg/ml trypsin, 3 nM gelatinase and 5 mM CaCl2. The reaction mixture was incubated at 37° C. for 60 minutes and then soybean trypsin inhibitor was added at 44 μg/ml to quench the reaction.
The substrate was added at final 10 μM and was then further incubated at 37° C. for 60 minutes. The reaction was terminated by the addition of 750 μl of 0.1 N sodium acetate buffer (pH 4.0). The hydrolysis of the substrate was assessed by fluorescence, excitation at 328 nm and emission of 393 nm, with a Perkin-Elmer Fluorimeter LS-50B.

IC50 | Compound
24 nM | I: {Succinyl(2R-iBu,4-NHOH)}-WGP[Hyp]GP[Hyp]GPPSGG[Ahx]KKG-NH2 / II: {Succinyl(2R-iBu,4-NHOH)}-WGP[Hyp]GP[Hyp]GPPSGG[Ahx] / III: {Succinyl(2R-iBu,4-NHOH)}-WGP[Hyp]GP[Hyp]GPPSGG[Ahx] (amide I:15-II:C, I:16-III:C) [NHT2-L]
2.3 nM | CC(C)C[C@H](CC(=O)NO)C(=O)N[C@@H](Cc1c[nH]c2ccccc12)C(=O)NCC(=O)N1CCC[C@H]1C(=O)N1C[C@H](O)C[C@H]1C(=O)NCC(=O)N1CCC[C@H]1C(=O)N1CCC[C@H]1C(=O)N[C@@H](CO)C(=O)NCC(=O)NCC(=O)NCCCCCC(=O)NCCCC[C@H](NC(=O)CCCCCNC(=O)CNC(=O)CNC(=O)[C@H](CO)NC(=O)[C@@H]1CCCN1C(=O)[C@@H]1CCCN1C(=O)CNC(=O)[C@@H]1C[C@@H](O)CN1C(=O)[C@@H]1CCCN1C(=O)CNC(=O)[C@H](Cc1c[nH]c2ccccc12)NC(=O)[C@@H](CC(=O)NO)CC(C)C)C(=O)N[C@@H](CCCCNC(=O)CCCCCNC(=O)CNC(=O)CNC(=O)[C@H](CO)NC(=O)[C@@H]1CCCN1C(=O)[C@@H]1CCCN1C(=O)CNC(=O)[C@@H]1C[C@@H](O)CN1C(=O)[C@@H]1CCCN1C(=O)CNC(=O)[C@H](Cc1c[nH]c2ccccc12)NC(=O)[C@@H](CC(=O)NO)CC(C)C)C(=O)NCC(N)=O [NHT1-L] (I: {Succinyl(2R-iBu,4-NHOH)}-WGP[Hyp]GPPSGG[Ahx]KKG-NH2 / II: {Succinyl(2R-iBu,4-NHOH)}-WGP[Hyp]GPPSGG[Ahx] / III: {Succinyl(2R-iBu,4-NHOH)}-WGP[Hyp]GPPSGG[Ahx]; amide I:12-II:C, I:13-III:C)
